≈ marks a conversion by molar mass, not a printed value.
Key:
Format in all cases: cell-based
E. coli, NIHJ = assay: Antibacterial activity (MIC), E. coli NIHJ; settings: for MIC: Escherichia coli
Procedure: (§1) The antibacterial activity assays were performed by the method specified by Japan Society of Chemotherapy (Chemotherapy 29(1), 76 (1981). The table of antibacterial activity is followed by the reaction schemes for the synthesis of various spiro ring-containing cyclic amine derivatives, intermediate compounds for synthesis of quinolone rings and synthesis of various spiro compounds.

S. flexneri, 2A 5503 = assay: Antibacterial activity (MIC), S. flexneri 2A 5503; settings: for MIC: Shigella flexneri, 2A5503
Procedure: as §1

Pr. vulgaris, 08601 = assay: Antibacterial activity (MIC), Pr. vulgaris 08601; settings: for MIC: Proteus vulgaris
Procedure: as §1

Pr. mirabillis, IF0-3849 = assay: Antibacterial activity (MIC), Pr. mirabillis IF0-3849
Procedure: as §1

Ser. marcescens, 10100 = assay: Antibacterial activity (MIC), Ser. marcescens 10100; settings: for MIC: Serratia marcescens, 10100, Ser. marcescens; for Antibacterial Activity (MIC): Ser. marcescens
Procedure: as §1

Ps. aeruginosa, 32104 = assay: Antibacterial activity (MIC), Ps. aeruginosa 32104; settings: for MIC: Pseudomonas aeruginosa, 32104, Ps. aeruginosa; for Antibacterial Activity (MIC): Ps. aeruginosa
Procedure: as §1

Ps. aeruginosa, 32121 = assay: Antibacterial activity (MIC), Ps. aeruginosa 32121; settings: for MIC: Pseudomonas aeruginosa, 32121, Ps. aeruginosa; for Antibacterial Activity (MIC): Ps. aeruginosa
Procedure: as §1

[1] = tested on: Ps. maltophilia, IID-1275; assay: Antibacterial activity (MIC), Ps. maltophilia IID-1275; settings: for MIC: Stenotrophomonas maltophilia, IID1275, Ps. maltophilia; for Antibacterial Activity (MIC): Ps. maltophilia
Procedure: as §1

S. aureus, 209P = assay: Antibacterial activity (MIC), S. aureus 209P; settings: for MIC: Staphylococcus aureus
Procedure: as §1

S. epidermidis, 56500 = assay: Antibacterial activity (MIC), S. epidermidis 56500; settings: for MIC: Staphylococcus epidermidis, 56500, S. epidermidis; for Antibacterial Activity (MIC): S. epidermidis
Procedure: as §1

Str. pyogenes, G-36 = assay: Antibacterial activity (MIC), Str. pyogenes G-36; settings: for MIC: Streptococcus pyogenes, G36, Str. pyogenes; for Antibacterial Activity (MIC): Str. pyogenes
Procedure: as §1

[2] = tested on: Str. faecalis, ATCC-19433; assay: Antibacterial activity (MIC), Str. faecalis ATCC-19433; settings: for MIC: Enterococcus faecalis, ATCC19433, Str. faecalis; for Antibacterial Activity (MIC): Str. faecalis
Procedure: as §1

SMILES | MIC (E. coli, NIHJ) [µg/mL] | MIC (S. flexneri, 2A 5503) [µg/mL] | MIC (Pr. vulgaris, 08601) [µg/mL] | MIC (Pr. mirabillis, IF0-3849) [µg/mL] | MIC (Ser. marcescens, 10100) [µg/mL] | MIC (Ps. aeruginosa, 32104) [µg/mL] | MIC (Ps. aeruginosa, 32121) [µg/mL] | MIC [1] [µg/mL] | MIC (S. aureus, 209P) [µg/mL] | MIC (S. epidermidis, 56500) [µg/mL] | MIC (Str. pyogenes, G-36) [µg/mL] | MIC [2] [µg/mL] | other results
NC1CN(c2c(F)cc3c(=O)c(C(=O)O)cn(C4CC4)c3c2Cl)CC12CC2 (racemic) [Compound 32, 7-(7-Amino-5-azaspiro[2.4]heptan-5-yl)-8-chloro-1-cyclopropyl-6-fluoro-1,4-dihydro-4-oxoquinoline-3-carboxylic Acid] | ≤ 0.05 | ≤ 0.05 | ≤ 0.05 | ≤ 0.05 | ≤ 0.05 | 0.1 (≈ 0.255 µM) | ≤ 0.05 | ≤ 0.05 | ≤ 0.05 | 0.1 (≈ 0.255 µM) | 0.1 (≈ 0.255 µM) | 0.1 (≈ 0.255 µM) | 
NC1CN(c2cc3c(cc2F)c(=O)c(C(=O)O)cn3C2CC2)CC12CC2 (racemic) [Compound 33, 7-(7-Amino-5-azaspiro[2.4]heptan-5-yl)-1-cyclopropyl-6-fluoro-1,4-dihydro-4-oxoquinoline-3-carboxylic Acid] | ≤ 0.05 | ≤ 0.05 | ≤ 0.05 | ≤ 0.05 | 0.1 (≈ 0.28 µM) | 0.1 (≈ 0.28 µM) | ≤ 0.05 | 0.1 (≈ 0.28 µM) | ≤ 0.05 | 0.2 (≈ 0.56 µM) | 0.39 (≈ 1.09 µM) | 0.39 (≈ 1.09 µM) | 
NC1CN(c2c(F)cc3c(=O)c(C(=O)O)cn(C4CC4)c3c2Cl)CC12CC2 (single isomer, unassigned) [Compound 32a, 7-(7-amino-5-azaspiro[2.4]heptan-5-yl)-8-chloro-1-cyclopropyl-6-fluoro-1,4-dihydro-4-oxoquinoline-3-carboxylic acid] | ≤ 0.05 | ≤ 0.05 | ≤ 0.05 | 0.1 (≈ 0.255 µM) | 0.1 (≈ 0.255 µM) |  | 0.1 (≈ 0.255 µM) | 0.1 (≈ 0.255 µM) | 0.1 (≈ 0.255 µM) |  | 0.78 (≈ 1.99 µM) |  | Antibacterial Activity (MIC) (Ps. aeruginosa, 32104): 0.39 µg/mL; Antibacterial Activity (MIC) (S. epidermidis, 56500): 0.20 µg/mL; Antibacterial Activity (MIC) [2]: 0.39 µg/mL
NC1CN(c2c(F)cc3c(=O)c(C(=O)O)cn(C4CC4)c3c2Cl)CC12CC2 (single isomer, unassigned) [Compound 32b, 7-(7-amino-5-azaspiro[2.4]heptan-5-yl)-8-chloro-1-cyclopropyl-6-fluoro-1,4-dihydro-4-oxoquinoline-3-carboxylic acid] |  |  |  |  |  |  |  |  |  |  |  |  | Antibacterial Activity (MIC) (E. coli, NIHJ): ≤ 0.05 µg/mL; Antibacterial Activity (MIC) (S. flexneri, 2A 5503): ≤ 0.05 µg/mL; Antibacterial Activity (MIC) (Pr. vulgaris, 08601): ≤ 0.05 µg/mL; Antibacterial Activity (MIC) (Pr. mirabillis, IF0-3849): ≤ 0.05 µg/mL; Antibacterial Activity (MIC) (Ser. marcescens, 10100): ≤ 0.05 µg/mL; Antibacterial Activity (MIC) (Ps. aeruginosa, 32104): 0.10 µg/mL; Antibacterial Activity (MIC) (Ps. aeruginosa, 32121): ≤ 0.05 µg/mL; Antibacterial Activity (MIC) [1]: ≤ 0.05 µg/mL; Antibacterial Activity (MIC) (S. aureus, 209P): ≤ 0.05 µg/mL; Antibacterial Activity (MIC) (S. epidermidis, 56500): ≤ 0.05 µg/mL; Antibacterial Activity (MIC) (Str. pyogenes, G-36): 0.39 µg/mL; Antibacterial Activity (MIC) [2]: 0.10 µg/mL
NC1CN(c2c(F)cc3c(=O)c(C(=O)O)cn(C4CC4)c3c2F)CC12CC2 (single isomer, unassigned; (+)) [Compound 31a, (+)-7-(7-Amino-5-azaspiro[2.4]heptan-5-yl)-1-cyclopropyl-6,8-difluoro-1,4-dihydro-4-oxoquinoline-3-carboxylic Acid] | ≤ 0.05 | ≤ 0.05 | ≤ 0.05 | 0.1 (≈ 0.266 µM) | ≤ 0.05 |  | 0.1 (≈ 0.266 µM) | 0.1 (≈ 0.266 µM) | 0.1 (≈ 0.266 µM) |  |  |  | Antibacterial Activity (MIC) (Ps. aeruginosa, 32104): 0.20 µg/mL; Antibacterial Activity (MIC) (S. epidermidis, 56500): 0.39 µg/mL; Antibacterial Activity (MIC) (Str. pyogenes, G-36): 1.57 µg/mL; Antibacterial Activity (MIC) [2]: 0.79 µg/mL
NC1CN(c2c(F)cc3c(=O)c(C(=O)O)cn(C4CC4)c3c2F)CC12CC2 (single isomer, unassigned; (-)) [Compound 31b, (-)-7-(7-Amino-5-azaspiro[2.4]heptan-5-yl)-1-cyclopropyl-6,8-difluoro-1,4-dihydro-4-oxoquinoline-3-carboxylic Acid] |  |  |  |  |  |  |  |  |  |  |  |  | Antibacterial Activity (MIC) (E. coli, NIHJ): ≤ 0.05 µg/mL; Antibacterial Activity (MIC) (S. flexneri, 2A 5503): ≤ 0.05 µg/mL; Antibacterial Activity (MIC) (Pr. vulgaris, 08601): ≤ 0.05 µg/mL; Antibacterial Activity (MIC) (Pr. mirabillis, IF0-3849): ≤ 0.05 µg/mL; Antibacterial Activity (MIC) (Ser. marcescens, 10100): ≤ 0.05 µg/mL; Antibacterial Activity (MIC) (Ps. aeruginosa, 32104): ≤ 0.05 µg/mL; Antibacterial Activity (MIC) (Ps. aeruginosa, 32121): ≤ 0.05 µg/mL; Antibacterial Activity (MIC) [1]: ≤ 0.05 µg/mL; Antibacterial Activity (MIC) (S. aureus, 209P): ≤ 0.05 µg/mL; Antibacterial Activity (MIC) (S. epidermidis, 56500): ≤ 0.05 µg/mL; Antibacterial Activity (MIC) (Str. pyogenes, G-36): 0.10 µg/mL; Antibacterial Activity (MIC) [2]: 0.10 µg/mL
NC1CN(c2nc3c(cc2F)c(=O)c(C(=O)O)cn3C2CC2)CC12CC2 (single isomer, unassigned; (-)) [Compound 35b, (-)-7-(7-Amino-5-azaspiro[2.4]heptan-5-yl)-1-cyclopropyl-6-fluoro-4-oxo-1,4-dihydro-1,8-naphthyridine-3-carboxylic acid] | ≤ 0.05 | ≤ 0.05 | ≤ 0.05 | ≤ 0.05 | ≤ 0.05 | ≤ 0.05 | ≤ 0.05 | ≤ 0.05 | ≤ 0.05 | 0.1 (≈ 0.279 µM) | 0.78 (≈ 2.18 µM) | 0.39 (≈ 1.09 µM) | 
C[C@H]1COc2c(N3CC(N)C4(CC4)C3)c(F)cc3c(=O)c(C(=O)O)cn1c23 (single isomer, unassigned; (-)) [Compound 36b] | ≤ 0.05 | ≤ 0.05 | ≤ 0.05 | 0.1 (≈ 0.268 µM) | 0.2 (≈ 0.536 µM) | 0.2 (≈ 0.536 µM) | 0.1 (≈ 0.268 µM) | 0.39 (≈ 1.04 µM) | ≤ 0.05 | 0.1 (≈ 0.268 µM) | 0.39 (≈ 1.04 µM) | 0.39 (≈ 1.04 µM) | 
Cc1c(N2CC(N)C3(CC3)C2)c(F)cc2c(=O)c(C(=O)O)cn(C3CC3)c12 (single isomer, unassigned; (-)) [Compound 55b, (-)-7-(7-Amino-5-azaspiro[2.3]heptan-5-yl)-1-cyclopropyl-6-fluoro-8-methyl-4-oxo-1,4-dihydroquinoline-3-carboxylic acid] | ≤ 0.05 | ≤ 0.05 | ≤ 0.05 | ≤ 0.05 | 0.1 (≈ 0.269 µM) | ≤ 0.05 | ≤ 0.05 | ≤ 0.05 | ≤ 0.05 | ≤ 0.05 | 0.1 (≈ 0.269 µM) | 0.1 (≈ 0.269 µM) | 
NC1CN(c2c(F)cc3c(=O)c(C(=O)O)cn(C4CC4)c3c2F)CC12CC2 (stereo not drawn) [Compound 31, 7-(7-Amino-5-azaspiro[2.4]heptan-5-yl)-1-cyclopropyl-6,8-difluoro-1,4-dihydro-4-oxoquinoline-3-carboxylic Acid] | ≤ 0.05 | ≤ 0.05 | ≤ 0.05 | ≤ 0.05 | ≤ 0.05 | 0.1 (≈ 0.266 µM) | ≤ 0.05 | ≤ 0.05 | ≤ 0.05 | 0.1 (≈ 0.266 µM) | 0.39 (≈ 1.04 µM) | 0.2 (≈ 0.533 µM) | 
N[C@@H]1CN(c2cc3c(cc2F)c(=O)c(C(=O)O)cn3C2CC2)CC12CC2 [Compound 33b, (-)-7-[7-(S)-amino-5-azaspiro[2.3]heptan-5-yl)-1-cyclopropyl-6-fluoro-1,4-dihydro-4-oxoquinoline-3-carboxylic acid] | ≤ 0.05 | ≤ 0.05 | ≤ 0.05 | ≤ 0.05 | ≤ 0.05 | ≤ 0.05 | ≤ 0.05 | 0.1 (≈ 0.28 µM) | ≤ 0.05 | 0.1 (≈ 0.28 µM) | 0.2 (≈ 0.56 µM) | 0.2 (≈ 0.56 µM) | 
NC1CN(c2cc3c(cc2F)c(=O)c(C(=O)O)cn3-c2ccc(F)cc2F)CC12CC2 (stereo not drawn) [Compound 34, 7-(7-amino-5-azaspiro[2.4]heptan-5-yl)-6-fluoro-1-(2.4-difluorophenyl)-1,4-dihydro-4-oxoquinoline-3-carboxylic acid] | ≤ 0.05 | ≤ 0.05 | 0.2 (≈ 0.466 µM) | 0.39 (≈ 0.908 µM) | 0.39 (≈ 0.908 µM) | 0.39 (≈ 0.908 µM) | 0.2 (≈ 0.466 µM) | 0.1 (≈ 0.233 µM) | 0.1 (≈ 0.233 µM) | 0.2 (≈ 0.466 µM) | 0.39 (≈ 0.908 µM) | 0.78 (≈ 1.82 µM) | 
NC1CN(c2nc3c(cc2F)c(=O)c(C(=O)O)cn3C2CC2)CC12CC2 (stereo not drawn) [Compound 35, 7-(7-amino-5-azaspiro[2.4]heptan-5-yl)-1-cyclopropyl-6-fluoro-1,4-dihydro-4-oxo-1,8-naphthyridine-3-carboxylic acid] | ≤ 0.05 | ≤ 0.05 | ≤ 0.05 | 0.1 (≈ 0.279 µM) | ≤ 0.05 | 0.1 (≈ 0.279 µM) | ≤ 0.05 | ≤ 0.05 | 0.1 (≈ 0.279 µM) | 0.2 (≈ 0.558 µM) | 0.78 (≈ 2.18 µM) | 0.39 (≈ 1.09 µM) | 
C[C@H]1COc2c(N3CC(N)C4(CC4)C3)c(F)cc3c(=O)c(C(=O)O)cn1c23 (stereo partly drawn) [Compound 36, 10-(7-Amino-5-azaspiro[2.4]heptan-5-yl)-9-fluoro-2,3-dihydro-3-(S)-methyl-7-oxo-7H-pyrido[1,2,3-de][1.4]-benzoxazine-6-carboxylic acid] | ≤ 0.05 | ≤ 0.05 | ≤ 0.05 | 0.1 (≈ 0.268 µM) | 0.2 (≈ 0.536 µM) | 0.2 (≈ 0.536 µM) | 0.1 (≈ 0.268 µM) | 0.39 (≈ 1.04 µM) | 0.1 (≈ 0.268 µM) | 0.2 (≈ 0.536 µM) | 0.39 (≈ 1.04 µM) | 0.78 (≈ 2.09 µM) | 
